Experimental data reported in US11427549B2, “Pyrimidinyloxy benzo-fused compounds as herbicides” (FMC Corporation, priority 2017, dated 2022).

Columns and labels:
[1] = test system: foxtail, green (green foxtail, Setaria viridis); assay: Test A postemergence, foxtail, green; format: in vivo; conditions: 0 to 100 scale (0 no effect, 100 complete control)
Text: (§1) Seeds of plant species selected from barnyardgrass (Echinochloa crus-galli), kochia (Kochia scoparia), ragweed (common ragweed, Ambrosia elatior), ryegrass, Italian (Italian ryegrass, Lolium multiflorum), foxtail, giant (giant foxtail, Setaria faberii), foxtail, green (green foxtail, Setaria viridis) and pigweed (Amaranthus retroflexus) were planted into a blend of loam soil and sand and treated preemergence with a directed soil spray using test chemicals formulated in a non-phytotoxic solvent mixture which included a surfactant.
(§2) At the same time, plants selected from these weed species and also wheat (Triticum aestivum), corn (Zea mays), blackgrass (Alopecurus myosuroides), and galium (catchweed bedstraw, Galium aparine) were planted in pots containing the same blend of loam soil and sand and treated with postemergence applications of test chemicals formulated in the same manner. Plants ranged in height from 2 to 10 cm and were in the one- to two-leaf stage for the postemergence treatment. Treated plants and untreated controls were maintained in a greenhouse for approximately 10 days, after which time all treated plants were compared to untreated controls and visually evaluated for injury. […] A dash (-) response means no test result.

[2] = test system: pigweed (Amaranthus retroflexus); assay: Test A preemergence, pigweed; format: in vivo; conditions: 0 to 100 scale (0 no effect, 100 complete control)
Text: as §1, §2

[3] = test system: pigweed (Amaranthus retroflexus); assay: Test A postemergence, pigweed; format: in vivo; conditions: 0 to 100 scale (0 no effect, 100 complete control)
Text: as §1, §2

[4] = test system: kochia (Kochia scoparia); assay: Test A preemergence, kochia; format: in vivo; conditions: 0 to 100 scale (0 no effect, 100 complete control)
Text: as §1, §2

[5] = test system: wheat (Triticum aestivum); assay: Test A postemergence, wheat; format: in vivo; conditions: 0 to 100 scale (0 no effect, 100 complete control)
Text: as §1, §2

[6] = test system: ragweed (common ragweed, Ambrosia elatior); assay: Test A postemergence, ragweed; format: in vivo; conditions: 0 to 100 scale (0 no effect, 100 complete control)
Text: as §1, §2

[7] = test system: galium (catchweed bedstraw, Galium aparine); assay: Test A postemergence, galium; format: in vivo; conditions: 0 to 100 scale (0 no effect, 100 complete control)
Text: as §1, §2

[8] = test system: ryegrass, Italian (Italian ryegrass, Lolium multiflorum); assay: Test A postemergence, ryegrass, Italian; format: in vivo; conditions: 0 to 100 scale (0 no effect, 100 complete control)
Text: as §1, §2

[9] = test system: ragweed (common ragweed, Ambrosia elatior); assay: Test A preemergence, ragweed; format: in vivo; conditions: 0 to 100 scale (0 no effect, 100 complete control)
Text: as §1, §2

[10] = test system: corn (Zea mays); assay: Test A postemergence, corn; format: in vivo; conditions: 0 to 100 scale (0 no effect, 100 complete control)
Text: as §1, §2

[11] = test system: ducksalad (Heteranthera limosa); assay: Test B flooded paddy test, ducksalad; conditions: Flood, 250 g ai/ha, applied to paddy water, 2-leaf stage, visually evaluated after 13 to 15 days
[12] = test system: rice (Oryza sativa); assay: Test B flooded paddy test, rice; conditions: Flood, 250 g ai/ha, applied to paddy water, 2-leaf stage, visually evaluated after 13 to 15 days
[13] = test system: kochia (Kochia scoparia); assay: Test A postemergence, kochia; format: in vivo; conditions: 0 to 100 scale (0 no effect, 100 complete control)
Text: as §1, §2

[14] = test system: barnyardgrass (Echinochloa crus-galli); assay: Test B flooded paddy test, barnyardgrass; conditions: Flood, 250 g ai/ha, applied to paddy water, 2-leaf stage, visually evaluated after 13 to 15 days
[15] = test system: barnyardgrass (Echinochloa crus-galli); assay: Test A postemergence, barnyardgrass; format: in vivo; conditions: 0 to 100 scale (0 no effect, 100 complete control)
Text: as §1, §2

[16] = test system: blackgrass (Alopecurus myosuroides); assay: Test A postemergence, blackgrass; format: in vivo; conditions: 0 to 100 scale (0 no effect, 100 complete control)
Text: as §1, §2

[17] = test system: ryegrass, Italian (Italian ryegrass, Lolium multiflorum); assay: Test A preemergence, ryegrass, Italian; format: in vivo; conditions: 0 to 100 scale (0 no effect, 100 complete control)
Text: as §1, §2

[18] = test system: barnyardgrass (Echinochloa crus-galli); assay: Test A preemergence, barnyardgrass; format: in vivo; conditions: 0 to 100 scale (0 no effect, 100 complete control)
Text: as §1, §2

[19] = test system: foxtail, green (green foxtail, Setaria viridis); assay: Test A preemergence, foxtail, green; format: in vivo; conditions: 0 to 100 scale (0 no effect, 100 complete control)
Text: as §1, §2

[20] = test system: foxtail, giant (giant foxtail, Setaria faberii); assay: Test A preemergence, foxtail, giant; format: in vivo; conditions: 0 to 100 scale (0 no effect, 100 complete control)
Text: as §1, §2

[21] = test system: foxtail, giant (giant foxtail, Setaria faberii); assay: Test A postemergence, foxtail, giant; format: in vivo; conditions: 0 to 100 scale (0 no effect, 100 complete control)
Text: as §1, §2

Row | Compound | Plant response rating, Foxtail, Green ([1]; 125 g ai/ha) | Plant response rating, Pigweed ([2]; 125 g ai/ha) | Plant response rating, Pigweed ([3]; 125 g ai/ha) | Plant response rating, Kochia ([4]; 125 g ai/ha) | Plant response rating, Wheat ([5]; 125 g ai/ha) | Plant response rating, Ragweed ([6]; 125 g ai/ha) | Plant response rating, Galium ([7]; 125 g ai/ha) | Plant response rating, Ryegrass, Italian ([8]; 125 g ai/ha) | Plant response rating, Ragweed ([9]; 125 g ai/ha) | Plant response rating, Corn ([10]; 125 g ai/ha) | Plant response rating, Ducksalad (0 to 100 scale, 0 is no effect, 100 is complete control) [11] | Plant response rating, Rice (0 to 100 scale, 0 is no effect, 100 is complete control) [12] | Plant response rating, Kochia ([13]; 125 g ai/ha) | Plant response rating, Barnyardgrass (0 to 100 scale, 0 is no effect, 100 is complete control) [14] | Plant response rating, Barnyardgrass ([15]; 125 g ai/ha) | Plant response rating, Blackgrass ([16]; 125 g ai/ha) | Plant response rating, Ryegrass, Italian ([17]; 125 g ai/ha) | Plant response rating, Barnyardgrass ([18]; 125 g ai/ha) | Plant response rating, Foxtail, Green ([19]; 125 g ai/ha) | Plant response rating, Pigweed ([2]; 31 g ai/ha) | also measured
1 | 5-Chloro-2-[[1-oxido-3-(4,4,4-trifluorobutyl)-3H-2,1-benzoxathiol-4-yl]oxy]pyrimidine [Compound 15] | 20 | 70 | 70 | 20 | 10 | 30 | 80 | 20 | 0 | 20 | 0 | 0 | 80 | 0 | 30 | 30 | 0 | 30 | 50 |  | Plant response rating, Foxtail, Green ([1]; 500 g ai/ha): 80; Plant response rating, Pigweed ([2]; 500 g ai/ha): 100; Plant response rating, Pigweed ([3]; 500 g ai/ha): 90; Plant response rating, Kochia ([4]; 500 g ai/ha): 80; Plant response rating, Wheat ([5]; 500 g ai/ha): 30; Plant response rating, Ragweed ([6]; 500 g ai/ha): 60; Plant response rating, Galium ([7]; 500 g ai/ha): 80; Plant response rating, Ryegrass, Italian ([8]; 500 g ai/ha): 90; Plant response rating, Ragweed ([9]; 500 g ai/ha): 20; Plant response rating, Corn ([10]; 500 g ai/ha): 40; Plant response rating, Kochia ([13]; 500 g ai/ha): 90; Plant response rating, Barnyardgrass ([15]; 500 g ai/ha): 60; Plant response rating, Blackgrass ([16]; 500 g ai/ha): 90; Plant response rating, Ryegrass, Italian ([17]; 500 g ai/ha): 30; Plant response rating, Barnyardgrass ([18]; 500 g ai/ha): 70; Plant response rating, Foxtail, Green ([19]; 500 g ai/ha): 100
2 | O=C1CC(CCCC(F)(F)F)c2c(Oc3ncc(Cl)cn3)cccc21 (stereo not shown) [Compound 6, 4-[(5-Chloropyrimidin-2-pyrimidinyl)oxy]-2,3-dihydro-3-(4,4,4-trifluorobutyl)-1H-inden-1-one] | 40 | 100 | 100 | 80 | 10 | 0 | 90 | 30 | 0 | 20 | 100 | 20 | 60 | 40 | 40 | 30 | 10 | 90 | 100 | 0 | Plant response rating, Foxtail, Green ([1]; 31 g ai/ha): 10; Plant response rating, Pigweed ([3]; 31 g ai/ha): 90; Plant response rating, Kochia ([4]; 31 g ai/ha): 0; Plant response rating, Wheat ([5]; 31 g ai/ha): 0; Plant response rating, Ragweed ([6]; 31 g ai/ha): 0; Plant response rating, Galium ([7]; 31 g ai/ha): 60; Plant response rating, Ryegrass, Italian ([8]; 31 g ai/ha): 0; Plant response rating, Ragweed ([9]; 31 g ai/ha): 0; Plant response rating, Corn ([10]; 31 g ai/ha): 0; Plant response rating, Kochia ([13]; 31 g ai/ha): 10; Plant response rating, Barnyardgrass ([15]; 31 g ai/ha): 10; Plant response rating, Blackgrass ([16]; 31 g ai/ha): 10; Plant response rating, Ryegrass, Italian ([17]; 31 g ai/ha): 0; Plant response rating, Barnyardgrass ([18]; 31 g ai/ha): 0; Plant response rating, Foxtail, Green ([19]; 31 g ai/ha): 20
3 | O=C1OCC(CCCC(F)(F)F)c2c(Oc3ncc(Cl)cn3)cccc21 (stereo not shown) [Compound 16, 5-[(5-Chloro-2-pyrimidinyl)oxy]-3,4-dihydro-4-(4,4,4,-trifluorobutyl)-1H-2benzopyran-1-one] |  | 100 | 100 | 100 | 50 | 50 | 100 | 80 |  | 40 | 100 | 15 | 100 | 75 | 80 | 90 | 70 | 100 |  | 100 | Plant response rating, Foxtail, Giant ([20]; 31 g ai/ha): 80; Plant response rating, Foxtail, Giant ([20]; 125 g ai/ha): 100; Plant response rating, Pigweed ([3]; 31 g ai/ha): 80; Plant response rating, Kochia ([4]; 31 g ai/ha): 10; Plant response rating, Wheat ([5]; 31 g ai/ha): 50; Plant response rating, Ragweed ([6]; 31 g ai/ha): 10; Plant response rating, Galium ([7]; 31 g ai/ha): 90; Plant response rating, Ryegrass, Italian ([8]; 31 g ai/ha): 20; Plant response rating, Foxtail, Giant ([21]; 31 g ai/ha): 30; Plant response rating, Foxtail, Giant ([21]; 125 g ai/ha): 90; Plant response rating, Corn ([10]; 31 g ai/ha): 0; Plant response rating, Kochia ([13]; 31 g ai/ha): 80; Plant response rating, Barnyardgrass ([15]; 31 g ai/ha): 30; Plant response rating, Blackgrass ([16]; 31 g ai/ha): 80; Plant response rating, Ryegrass, Italian ([17]; 31 g ai/ha): 10; Plant response rating, Barnyardgrass ([18]; 31 g ai/ha): 60
